The source of these data is ChEMBL document CHEMBL5154690, “Discovery of a tricyclic farnesoid X receptor agonist HEC96719, a clinical candidate for treatment of non-alcoholic steatohepatitis” (Eur J Med Chem, 2022).

In one data set the target is T1, Estrogen receptor (Homo sapiens, UniProt P03372).
T1 sequence (P03372 whole entry): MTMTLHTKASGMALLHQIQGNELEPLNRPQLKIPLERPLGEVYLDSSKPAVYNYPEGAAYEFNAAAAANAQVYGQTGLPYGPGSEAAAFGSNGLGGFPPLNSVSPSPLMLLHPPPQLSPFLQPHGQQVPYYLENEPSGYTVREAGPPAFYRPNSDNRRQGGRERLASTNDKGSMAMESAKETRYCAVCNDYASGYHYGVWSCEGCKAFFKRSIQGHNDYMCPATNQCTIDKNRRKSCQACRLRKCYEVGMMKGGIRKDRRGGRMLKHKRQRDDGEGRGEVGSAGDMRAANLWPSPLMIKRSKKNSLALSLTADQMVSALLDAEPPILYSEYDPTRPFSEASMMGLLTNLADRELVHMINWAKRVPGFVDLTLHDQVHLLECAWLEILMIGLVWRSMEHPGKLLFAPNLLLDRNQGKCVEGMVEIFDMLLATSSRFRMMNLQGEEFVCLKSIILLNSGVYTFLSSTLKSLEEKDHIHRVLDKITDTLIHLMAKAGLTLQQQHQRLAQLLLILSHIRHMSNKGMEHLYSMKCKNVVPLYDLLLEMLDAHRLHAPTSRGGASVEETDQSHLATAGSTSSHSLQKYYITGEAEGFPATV
In words: Agonist activity at estrogen receptor alpha (unknown origin).

Data set [1] addresses T2, Peroxisome proliferator-activated receptor delta (Homo sapiens, UniProt Q03181).
T2 sequence (Q03181 whole entry): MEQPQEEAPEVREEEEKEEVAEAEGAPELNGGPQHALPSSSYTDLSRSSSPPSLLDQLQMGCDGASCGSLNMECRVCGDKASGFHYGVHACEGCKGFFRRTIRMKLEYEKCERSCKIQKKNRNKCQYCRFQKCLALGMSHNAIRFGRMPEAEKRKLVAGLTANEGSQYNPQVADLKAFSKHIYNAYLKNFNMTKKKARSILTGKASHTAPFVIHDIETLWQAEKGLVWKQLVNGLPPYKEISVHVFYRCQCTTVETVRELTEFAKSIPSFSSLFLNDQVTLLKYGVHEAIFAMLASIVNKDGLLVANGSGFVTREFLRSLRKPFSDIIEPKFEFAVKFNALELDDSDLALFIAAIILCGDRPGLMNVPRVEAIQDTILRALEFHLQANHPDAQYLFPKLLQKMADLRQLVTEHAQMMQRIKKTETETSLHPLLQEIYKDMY
In words: Agonist activity at PPARdelta (unknown origin).

Data set [2] has as its target T3, Nuclear receptor subfamily 1 group I member 2 (Homo sapiens, UniProt O75469).
T3 sequence (O75469 whole entry): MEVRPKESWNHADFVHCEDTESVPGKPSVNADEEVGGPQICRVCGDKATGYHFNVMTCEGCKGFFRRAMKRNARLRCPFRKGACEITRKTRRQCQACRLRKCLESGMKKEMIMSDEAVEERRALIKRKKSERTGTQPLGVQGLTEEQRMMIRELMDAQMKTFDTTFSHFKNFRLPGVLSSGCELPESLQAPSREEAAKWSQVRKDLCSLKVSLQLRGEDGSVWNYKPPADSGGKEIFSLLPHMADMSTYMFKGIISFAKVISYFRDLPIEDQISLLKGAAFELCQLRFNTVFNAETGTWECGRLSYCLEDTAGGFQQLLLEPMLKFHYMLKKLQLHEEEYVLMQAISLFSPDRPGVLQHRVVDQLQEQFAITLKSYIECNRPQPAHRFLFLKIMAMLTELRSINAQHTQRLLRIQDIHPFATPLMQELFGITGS
As to the kind of experiment: Agonist activity at PXR (unknown origin).

Data set [3] relates to Mus musculus. In words: Anti-NASH activity in western style diet-induced nonalcoholic steatohepatitis model of male C57BL/6 mouse assessed as reduction in liver TG level at 1 mg/kg, po administered once daily from week 32 to 44. It counts as functional, organism-based.
Data set [4] relates to Mus musculus. In words: Anti-NASH activity in western style diet-induced nonalcoholic steatohepatitis model of male C57BL/6 mouse assessed as reduction in NASH activity score (NAS) at 1 mg/kg, po administered once daily from week 32 to 44. Type of data set: functional, organism-based.
Data set [5] deals with Mus musculus. As to the kind of experiment: Antifibrotic activity in C57BL/6 mouse model of CCI4-induced liver fibrosis assessed as reduction in fibrosis area at 0.1 to 1 mg/kg, po administered once daily for 4 weeks. Type of data set: functional, organism-based. To be noted: dose 0.1-1 mg/kg.
In data set [6] the test system is Mus musculus. As to the kind of experiment: Antifibrotic activity in C57BL/6 mouse model of CCI4-induced liver fibrosis assessed as reduction in fibrosis area at 1 mg/kg, po administered once daily for 4 weeks. It counts as functional, organism-based.
Data set [7] is described as follows: Volume of distribution at steady state in male C57BL/6 mouse at 2 mg/kg, iv measured by LC-MS/MS analysis. Type of data set: ADME, organism-based. The settings on record: in vivo, read-out: Vdss.
Data set [8] in a line: Half-life in male C57BL/6 mouse at 5 mg/kg, po measured by LC-MS/MS analysis. Type of data set: ADME, organism-based. To be noted: in vivo.
Data set [9] is described as follows: Drug recovery in brain of male Sprague-Dawley rat at 4.5 mg/kg, po administered as C14-lableled compound and assessed as radioactivity and measured at 0.25 hrs. It counts as ADME, organism-based. To be noted: in vivo, BLD = below limit of detection.
Data set [10] can be described thus: Drug recovery in ileum of male Sprague-Dawley rat at 4.5 mg/kg, po administered as C14-lableled compound and assessed as radioactivity and measured at 0.25 hrs. To be noted: in vivo. It counts as ADME, organism-based.
Data set [11] in a line: Drug recovery in kidney of male Sprague-Dawley rat at 4.5 mg/kg, po administered as C14-lableled compound and assessed as radioactivity and measured at 1 hr. It counts as ADME, organism-based. To be noted: in vivo.
The nature of data set [12]: Drug recovery in heart of male Sprague-Dawley rat at 4.5 mg/kg, po administered as C14-lableled compound and assessed as radioactivity and measured at 6 hrs. It counts as ADME, organism-based. To be noted: in vivo, BLD = below limit of detection.
Data set [13] in a line: Drug recovery in spleen of male Sprague-Dawley rat at 4.5 mg/kg, po administered as C14-lableled compound and assessed as radioactivity and measured at 6 hrs. It counts as ADME, organism-based. To be noted: in vivo, BLD = below limit of detection.
A short description of data set [14]: Drug recovery in lung of male Sprague-Dawley rat at 4.5 mg/kg, po administered as C14-lableled compound and assessed as radioactivity and measured at 6 hrs. It counts as ADME, organism-based. To be noted: in vivo.
Data set [15] is described as follows: Drug recovery in plasma of male Sprague-Dawley rat at 4.5 mg/kg, po administered as C14-lableled compound and assessed as radioactivity and measured at 6 hrs. It counts as ADME, organism-based. To be noted: in vivo.
A short description of data set [16]: Drug recovery in kidney of male Sprague-Dawley rat at 4.5 mg/kg, po administered as C14-lableled compound and assessed as radioactivity and measured at 24 hrs. Type of data set: ADME, organism-based. The settings on record: in vivo.
Data set [17] in a line: Drug recovery in liver of male Sprague-Dawley rat at 4.5 mg/kg, po administered as C14-lableled compound and assessed as radioactivity and measured at 24 hrs. It counts as ADME, organism-based. To be noted: in vivo.
A short description of data set [18]: Drug recovery in stomach of male Sprague-Dawley rat at 4.5 mg/kg, po administered as C14-lableled compound and assessed as radioactivity and measured at 24 hrs. Type of data set: ADME, organism-based. The settings on record: in vivo.
The nature of data set [19]: Ratio of drug level in skin to plasma in male Sprague-Dawley rat at 4.5 mg/kg, po administered as C14-lableled compound and measured at 0.25 to 6 hrs. The settings on record: other tissue, time 0.25-6 hrs. Type of data set: ADME, organism-based.
Data set [20] in a line: Mutagenecity in Salmonella typhimurium TA100 measured by Ames test. Type of data set: toxicity. To be noted: salmonella enterica subsp. enterica serovar typhimurium. For orientation: The Ames test detects mutagens through reverse mutation in bacteria.
Data set [21] is described as follows: Toxicity in po dosed Sprague-Dawley rat assessed as maximum tolerated dose. Type of data set: organism-based. To be noted: in vivo.

pEC50: −log10 of the molar value. Calls of active or inactive are those of the source.

As for `O=C(O)c1ccc2c(c1)Oc1ccc(OCc3c(-c4c(Cl)cccc4Cl)noc3C3CC3)nc1C1(CC1)C2`, the pEC50 (at Estrogen receptor; in data set [1]; in data set [2]) was < 5.00 in each case. Further, the outcome in the data set on Mus musculus [3], in the data set with Mus musculus [4], with Mus musculus [5] and in the data set on Mus musculus [6] was Active. In addition, the Vd in data set [7] came out at 3.83 L/kg. Also, the half-life (commonly the time needed for the level to fall by half in the phase considered) in data set [8] was 1.06 h. The Drug recovery entry in data set [9] was “Bld”; in data set [10] it was 606 ngequiv/g; in data set [11], 457 ngequiv/g; in data set [12], “Bld”; in data set [13], “Bld”; in data set [14] it was 63.4 ngequiv/g. The Drug recovery is 27 ngequiv/g in [15], 74.4 ngequiv/g in data set [16], 304 ngequiv/g in data set [17] and 108 ngequiv/g in [18]. In addition, in data set [19], the Ratio stood at 0.56. For the same molecule, the Activity entry in data set [20] is reported as “Non-Toxic”. Also, in [21], the MTD – broadly, the highest dose tested that stayed within the study's limit of toxicity – worked out at 2000 mg/kg.
